In PMC6377692 (EJNMMI Research, 2019):
“And” between values parts separate entries of the source, which are not always exact repeats. Equal values may be shown once. Bridge positions count the residues as written; N and C are the ends. Square brackets hold non-standard residues; d marks the D form. Peptide text beside a SMILES is read from it. * marks the point of attachment. DO3A(CH2CH2SO2CH2CH2) = O=C(O)CN1CCN(CCS(=O)(=O)CC*)CCN(CC(=O)O)CCN(CC(=O)O)CC1; Ala(4-thiazolyl) = N[C@@H](Cc1cscn1)C(=O)O

Key:
[1] = in vitro autoradiography, pancreas sections; format: binding; details: human pancreas, 5–10 nM tracer, n = 3
Experimental: Biopsies from donor human liver and pancreas were obtained from Uppsala Biobank (sample collection 827), and their use was approved by local ethical review board (EPN 2015/401).
(§1) Sections were added in duplicates in each individual assay, and each experiment was repeated at least three times with different batches of radioligand, except for rat sections that were only performed in one assay.
(§2) After incubation, the sections were washed three times in 150 mL PBS. Sections were carefully dried at 37 °C and then exposed against a digital phosphorimager plate overnight together with a 10-μl droplet of radioactive reference (cross-calibrated against a gamma counter) on an absorbent paper attached to an object glass. The phosphor imager plates were scanned using a Cyclone Plus Phosphor imager (Perkin Elmer) at 600 dpi, and the resulting autoradiograms analyzed by ImageJ software (NIH, Bethesda). Pixel values in counts/mm^2 were converted to Bq/mm^2 by the included reference. Bq/mm^2 was further converted to fmol/mm^2 by the known specific radioactivity (fmol/Bq) of each batch of radiopharmaceutical.

[2] = in vitro autoradiography, pancreas sections; format: binding, Sprague Dawley rat; details: rat pancreas, 5–10 nM tracer, n = 1
Experimental: (§3) Liver and pancreas tissues were collected post-mortem from cynomolgus monkeys (NHP) and Sprague Dawley rats. The use of animal tissues collected post-mortem was approved by the Animal Research Ethical Committee of the Uppsala Region and was performed according to the Uppsala university guidelines on animal experimentation (UFV 2007/724).
as §1, §2

[3] = rat in vivo competition with precursor peptide; set-up: species or system Sprague Dawley rats; details: male, Sprague Dawley, total radioactivity, tracer alone, 40 min (S01) or 60 min (S02) p.i., S02 baseline stated for liver and spleen, read-out: baseline binding in the liver
Experimental: (§4) A competition study with each respective radiotracer precursor peptide was performed to investigate in vivo selectivity in selected tissues (the blood, heart, lung, liver, pancreas, spleen, kidney, muscle, and bone marrow).
(§5) Animals in each group (n = 4 for each radioligand) were co-injected with 1 mg/kg of either unlabelled DO3A-S01-GCG or -DO3A-S02-GCG peptide to determine the fraction of binding in each tissue which was receptor mediated.
(§6) The time point of euthanasia for each radiotracer was determined based on liver-to-blood ratio obtained from the biodistribution study above, as well as the radionuclide half-life and known radiotracer precursor half-life in blood plasma. Tissue resection and analysis of radioactive uptake in each tissue (expressed as SUV) were performed and analyzed as described above.

[4] = molecular target: T1, GCG receptor (Rattus norvegicus, UniProt P30082); assay: rat in vivo competition with precursor peptide; set-up: species or system Sprague Dawley rats; details: 1 mg/kg unlabelled precursor
T1 construct: tissue Taconic, Denmark (animals); host or cells: organs of living Sprague Dawley rats (liver, spleen, bone marrow and others)
Experimental: as §4, §5, §6

[5] = human predicted dosimetry (OLINDA/EXM 1.1, from rat biodistribution)
Experimental: The dosimetry calculations were performed as described previously for [^68Ga]Ga-DO3A-VS-Cys^40-Exendin4 [11].
Briefly, animal-derived tissue uptake was normalized to that of human tissues (using tissue weights of whole body adult reference male and female phantoms). The normalized SUVs were then un-decay corrected to their respective time point to reflect the actual radiation burden in each tissue. The tissue residence times (MBq-h/MBq) were assessed by trapezoidal approximation of the un-decay-corrected human SUV biodistribution data. The tissue washout from the last time point (180 min) to infinity was estimated by a single mono-exponential fit.
The estimation of the absorbed dose was performed by the OLINDA/EXM 1.1 software (Vanderbilt University, USA) where the calculations were based on the adult reference male or female phantoms to obtain the intended absorbed dose estimate in humans (ICRP60). The organ-specific doses are reported as mGy/MBq (effective dose as mSv/MBq). The amount of MBq that can be safely administered annually (MBq/year) was calculated for each organ as well as the effective dose, by dividing the limiting dose (10 mSv/year for the effective dose, 150 mGy/year for all tissues except for the red marrow and uterus with 50 mGy/year) by the dose (mGy/MBq or mSv/MBq).

[6] = molecular target: T2, human GCGR (HEK293 cells transfected with human GCGR) (Homo sapiens, UniProt P47871); assay: in vitro autoradiography, blocking on sections of frozen pellet of GCGR-transfected cells; format: binding; details: n = 3
T2 construct: expressed in transfected cells; host or cells: HEK293
Experimental: as §1, §2

[7] = rat in vivo distribution (ex vivo organ counting); set-up: species or system Sprague Dawley rats; details: male, Sprague Dawley, iv, total radioactivity, i.v.
Experimental: The in vivo distribution over time was performed to identify the optimal time point for an in vivo blocking study and to calculate the residence time for dosimetry (see detail below). Thus, measurement at more time points was prioritized over repetitions at individual time points.
The animals were kept at a constant temperature (25 °C) and humidity (50%) in a 12-h light-dark cycle. Food and water were provided ad libitum.
Each radiotracer was administered into the tail vein of conscious animals as a bolus in 0.5–0.6 mL of PBS (pH 7.4) as vehicle. […] Given the constraints of the specific radioactivity for each radioligand, the dosing was designed to minimize the given peptide mass (in order to stay below mass effect levels) while still yielding enough radioactive signal for well counter measurements.
At pre-determined post injection time points (5, 10, 20, 40, 60, 90, 120, and 180 min), two animals per each point were euthanized by CO2. Tissues were immediately extracted and weighed, and the radioactive content was measured in the well counter. […] The well counter readings were decay corrected to the time of injection and the mass of the extracted tissues and expressed as Bq/cc. […]

[8] = data not shown
[9] = in vitro autoradiography, pancreas sections; format: binding, cynomolgus monkey (NHP); details: NHP pancreas, 5–10 nM tracer
Experimental: as §3, §1, §2

[10] = system: GCGR in NHP liver sections; assay: in vitro autoradiography, liver sections; format: binding, cynomolgus monkey (NHP)
Experimental: as §3, §1, §2

[11] = extrapolated from rat biodistribution

T1 sequence (P30082 27-485): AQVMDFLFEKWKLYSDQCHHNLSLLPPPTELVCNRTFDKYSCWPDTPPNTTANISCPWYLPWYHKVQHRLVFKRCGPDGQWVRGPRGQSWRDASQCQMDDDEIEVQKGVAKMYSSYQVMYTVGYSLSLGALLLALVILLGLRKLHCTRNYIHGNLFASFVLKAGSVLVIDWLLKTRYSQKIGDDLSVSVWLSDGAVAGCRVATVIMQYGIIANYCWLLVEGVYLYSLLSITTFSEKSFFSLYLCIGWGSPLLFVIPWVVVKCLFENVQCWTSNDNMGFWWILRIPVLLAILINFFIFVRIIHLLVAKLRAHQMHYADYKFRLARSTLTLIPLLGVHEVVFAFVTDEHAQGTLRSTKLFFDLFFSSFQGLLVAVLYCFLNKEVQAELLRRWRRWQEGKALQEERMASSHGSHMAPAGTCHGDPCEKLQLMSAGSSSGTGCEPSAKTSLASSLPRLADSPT
T2 sequence (P47871 26-477): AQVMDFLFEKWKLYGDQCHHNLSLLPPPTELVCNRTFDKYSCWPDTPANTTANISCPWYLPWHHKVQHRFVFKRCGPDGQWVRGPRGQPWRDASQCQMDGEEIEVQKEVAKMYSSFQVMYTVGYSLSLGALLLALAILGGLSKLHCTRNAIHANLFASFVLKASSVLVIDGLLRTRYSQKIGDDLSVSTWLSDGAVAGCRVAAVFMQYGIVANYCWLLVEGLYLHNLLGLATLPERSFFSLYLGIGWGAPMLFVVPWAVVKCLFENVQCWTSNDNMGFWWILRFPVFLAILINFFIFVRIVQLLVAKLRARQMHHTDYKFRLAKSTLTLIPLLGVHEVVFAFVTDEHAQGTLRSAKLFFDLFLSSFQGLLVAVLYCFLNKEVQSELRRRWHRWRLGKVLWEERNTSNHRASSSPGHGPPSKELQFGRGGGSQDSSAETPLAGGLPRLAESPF

CC[C@H](C)[C@H](NC(=O)[C@H](Cc1ccccc1)NC(=O)[C@H](CCC(=O)O)NC(=O)[C@@H]1CCCCNC(=O)CC[C@H](NC(=O)[C@H](CC(=O)O)NC(=O)[C@H](CC(C)C)NC(=O)[C@H](CCC(N)=O)NC(=O)[C@H](CCCCN)NC(=O)[C@H](CO)NC(=O)[C@H](Cc2ccc(O)cc2)NC(=O)[C@H](CC(=O)O)NC(=O)[C@H](CO)NC(=O)[C@@H](NC(=O)[C@H](Cc2ccccc2)NC(=O)[C@@H](NC(=O)CNC(=O)[C@H](CCC(N)=O)NC(=O)[C@@H](CO)NC(=O)[C@@H](N)Cc2cscn2)[C@@H](C)O)[C@@H](C)O)C(=O)N[C@@H](CCC(N)=O)C(=O)N[C@@H](CCCNC(=N)N)C(=O)N[C@@H](C)C(=O)N1)C(=O)N[C@@H](CCC(=O)O)C(=O)N[C@@H](Cc1c[nH]c2ccccc12)C(=O)N[C@@H](CC(C)C)C(=O)N[C@@H](CC(C)C)C(=O)N[C@@H](C)C(=O)N[C@H](C(=O)NCC(=O)N1CCC[C@H]1C(=O)N[C@@H](CCC(=O)O)C(=O)N[C@@H](CO)C(=O)NCC(=O)N[C@@H](C)C(=O)N1CCC[C@H]1C(=O)N1CCC[C@H]1C(=O)N1CCC[C@H]1C(=O)N[C@@H](CO)C(=O)N[C@@H](CSCCS(=O)(=O)CCN1CCN(CC(=O)O)CCN(CC(=O)O)CCN(CC(=O)O)CC1)C(N)=O)[C@@H](C)O [[^68Ga]Ga-DO3A-S01-GCG, metal not drawn] (H-[Ala(4-thiazolyl)][dS]QGTFTSDYSKQLDEQRAKEFIEWLLATGPESGAPPPSC(DO3A(CH2CH2SO2CH2CH2))-NH2; lactam 16-20)
binding in pancreas sections [1]: Only background binding
binding in pancreas sections [2]: Only background binding
SUV [3]: > 2 SUV
decrease of binding in the spleen by co-injection of precursor peptide ([4]; 40 min (S01) or 60 min (S02) p.i., n = 4 per group): > 80%
decrease of binding in the liver by co-injection of precursor peptide ([4]; 40 min (S01) or 60 min (S02) p.i., n = 4 per group, 1 mg/kg): > 80% and 84%
effect of co-injection of precursor peptide on kidney uptake ([4]; 40 min p.i.): not affected
decrease of binding in the bone marrow by co-injection of precursor peptide ([4]; 40 min p.i., n = 4 per group): > 80%
human predicted absorbed dose, kidneys [5, 11]: 0.53 mGy/MBq
human predicted whole body effective dose [5, 11]: 20.2 μSv/MBq
calculated maximal annual dosing, limited by whole body effective dose ([5]; limit 10 mSv/year): 495 MBq
calculated maximal annual dosing, by bone marrow absorbed dose ([5]; limit 50 mGy/year): > 2000 MBq
calculated maximal annual dosing, limited by kidney dose ([5]; limit 150 mGy/year): 278 MBq
effect of co-incubation with GCG on binding to sections of GCGR-transfected cell pellet ([6]; 10 μM GCG): completely abolished
effect of co-incubation with own precursor peptide on binding to sections of GCGR-transfected cell pellet ([6]; 10 μM precursor): completely abolished
SUV ([7]; liver, 3.6 ug/kg, after 20 min, read-out: uptake in the liver, plateau): 3 SUV
tissue to tissue ratio ([7]; liver/blood, after 90 min): > 30
exposure [8]: 1570 ng·h/mL
plasma t½ [8]: 15 min
binding in pancreas sections [9]: Only background binding
effect of GLP-1 in excess on tracer binding to liver sections ([10]; 1 μM GLP-1): did not induce inhibition
inhibition of tracer binding to liver sections by co-incubation with own precursor peptide ([10]; 10 μM precursor): did not increase the degree of inhibition
inhibition of tracer binding to liver sections by co-incubation with GCG ([10]; 5–10 nM tracer, 10 μM GCG, 60 min RT, n = 3 (S01), n = 4 (S02)): > 60%
